Values quoted from earlier work in patent US7662811B2, “1,2,3,4-tetrahydropyrazin-2-yl acetamides and methods of use” (Amgen Inc., priority 2004, dated 2010).
No end group written: not given here.

## RPPGFSPFR [BK]
  half-life of BK in plasma: approximately 17 seconds
